The text below walks through data of ChEMBL document CHEMBL5465560, “Selectivity Literature for EUbOPEN Chemogenomic Library” (2024).

SMILES strings stand for the structures.

Experiment [1] concerns the target Cyclin-dependent kinase 2/cyclin A (Homo sapiens) (UniProt P24941+P20248+P78396). Kind of experiment: Selectivity interaction (SelectScreen profiling (Invitrogen)) EUB0000607a CDK2. In kind it is protein-complex assay. The following applies: at 2 µM.
Experiment [2] concerns the target Tyrosine-protein kinase Lyn (Homo sapiens, UniProt P07948). Kind of experiment: Selectivity interaction (KinomeScan (DiscoverX)) EUB0000607a LYN. The following applies: at 10 µM.
The target in experiment [3] is Vascular endothelial growth factor receptor 2 (Homo sapiens, UniProt P35968). The note with it: at 10 µM.
For experiment [4], the target named is Serine/threonine-protein kinase 32B (Homo sapiens) (UniProt Q9NY57). Kind of experiment: Selectivity interaction (KinomeScan (DiscoverX)) EUB0001619a STK32B. The following applies: at 1 µM.
The target of experiment [5] is T1, Mitogen-activated protein kinase kinase kinase kinase 2 (Homo sapiens) (UniProt Q12851).
T1 sequence (whole entry): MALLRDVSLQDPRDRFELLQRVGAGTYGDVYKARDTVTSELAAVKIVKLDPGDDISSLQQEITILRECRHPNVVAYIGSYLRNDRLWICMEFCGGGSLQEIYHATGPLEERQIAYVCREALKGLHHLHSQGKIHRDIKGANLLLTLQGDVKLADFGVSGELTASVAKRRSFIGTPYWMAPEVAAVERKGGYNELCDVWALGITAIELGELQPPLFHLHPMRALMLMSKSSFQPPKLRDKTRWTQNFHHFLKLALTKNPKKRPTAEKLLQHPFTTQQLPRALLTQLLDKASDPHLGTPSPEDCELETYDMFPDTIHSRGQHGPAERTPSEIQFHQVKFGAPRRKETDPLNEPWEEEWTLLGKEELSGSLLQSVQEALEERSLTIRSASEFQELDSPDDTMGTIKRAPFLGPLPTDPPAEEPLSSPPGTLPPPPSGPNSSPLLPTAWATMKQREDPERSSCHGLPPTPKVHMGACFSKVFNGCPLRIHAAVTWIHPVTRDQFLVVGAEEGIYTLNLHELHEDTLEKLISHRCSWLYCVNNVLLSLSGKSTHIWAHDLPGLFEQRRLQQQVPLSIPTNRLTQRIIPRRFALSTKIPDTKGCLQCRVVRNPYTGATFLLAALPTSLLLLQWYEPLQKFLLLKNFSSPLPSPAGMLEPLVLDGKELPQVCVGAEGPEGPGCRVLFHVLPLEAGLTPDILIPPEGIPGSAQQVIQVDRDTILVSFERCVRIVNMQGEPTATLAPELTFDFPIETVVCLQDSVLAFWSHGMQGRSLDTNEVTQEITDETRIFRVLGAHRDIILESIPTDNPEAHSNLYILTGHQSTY
Kind of experiment: Selectivity interaction (ActivX KiNativ screen (kinase selectivity in THP-1 cell lysates)) EUB0000639a MAP4K2. The note with it: lysate, at 1 µM. In kind it is subcellular.

In experiment [6] the target is N-lysine methyltransferase SMYD2 (Homo sapiens) (UniProt Q9NRG4). Kind of experiment: Selectivity interaction (Transferase panel (protein, RNA, and DNA methyltransferases. and EP300 (acetyltransferase))) EUB0000270b SMYD2.
Experiment [7] has as its target T2, Uncharacterized serine/threonine-protein kinase SBK3 (Homo sapiens) (UniProt P0C264).
T2 sequence (whole entry): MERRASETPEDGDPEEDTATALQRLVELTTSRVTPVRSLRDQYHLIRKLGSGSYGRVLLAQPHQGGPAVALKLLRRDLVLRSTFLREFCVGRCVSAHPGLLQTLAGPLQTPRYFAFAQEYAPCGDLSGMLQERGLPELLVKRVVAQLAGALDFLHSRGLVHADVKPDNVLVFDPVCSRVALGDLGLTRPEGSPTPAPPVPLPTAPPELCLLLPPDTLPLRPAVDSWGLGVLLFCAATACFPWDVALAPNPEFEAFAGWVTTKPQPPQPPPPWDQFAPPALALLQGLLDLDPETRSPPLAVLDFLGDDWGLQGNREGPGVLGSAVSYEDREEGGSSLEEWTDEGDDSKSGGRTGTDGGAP
Kind of experiment: Selectivity interaction (KinomeScan (DiscoverX)) EUB0000618a SBK3. The following applies: at 10 µM.

Experiment [8] deals with T3, Cyclin-dependent kinase-like 2 (Homo sapiens) (UniProt Q92772).
T3 sequence (whole entry): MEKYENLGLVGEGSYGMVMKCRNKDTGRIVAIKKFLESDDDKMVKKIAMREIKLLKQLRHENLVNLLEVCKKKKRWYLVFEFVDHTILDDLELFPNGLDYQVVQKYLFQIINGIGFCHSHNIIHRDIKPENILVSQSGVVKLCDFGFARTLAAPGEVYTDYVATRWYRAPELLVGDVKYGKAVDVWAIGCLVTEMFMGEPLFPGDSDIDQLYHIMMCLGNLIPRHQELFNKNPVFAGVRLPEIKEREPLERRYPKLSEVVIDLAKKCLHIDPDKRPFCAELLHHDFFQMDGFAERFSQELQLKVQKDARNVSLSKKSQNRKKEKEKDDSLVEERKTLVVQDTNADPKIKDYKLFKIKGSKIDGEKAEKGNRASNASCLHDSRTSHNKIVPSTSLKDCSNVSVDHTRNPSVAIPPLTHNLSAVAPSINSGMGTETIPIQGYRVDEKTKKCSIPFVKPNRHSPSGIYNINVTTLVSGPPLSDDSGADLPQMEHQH
Kind of experiment: Selectivity interaction (KinomeScan (DiscoverX)) EUB0000618a CDKL2. The note with it: at 10 µM.

In experiment [9] the target is Mitogen-activated protein kinase 10 (Homo sapiens, UniProt P53779). Kind of experiment: Selectivity interaction (Upstate Kinase Profiler service (Millipore)) EUB0000056c MAPK10. The note with it: at 1 µM.
Experiment [10] deals with Fibroblast growth factor receptor 2 (Homo sapiens) (UniProt P21802). Kind of experiment: Selectivity interaction (Upstate Kinase Profiler service (Millipore)) EUB0000056c FGFR2. The following applies: at 1 µM.
The target in experiment [11] is T4, Tyrosine-protein kinase ITK/TSK (Homo sapiens) (UniProt Q08881).
T4 sequence (whole entry): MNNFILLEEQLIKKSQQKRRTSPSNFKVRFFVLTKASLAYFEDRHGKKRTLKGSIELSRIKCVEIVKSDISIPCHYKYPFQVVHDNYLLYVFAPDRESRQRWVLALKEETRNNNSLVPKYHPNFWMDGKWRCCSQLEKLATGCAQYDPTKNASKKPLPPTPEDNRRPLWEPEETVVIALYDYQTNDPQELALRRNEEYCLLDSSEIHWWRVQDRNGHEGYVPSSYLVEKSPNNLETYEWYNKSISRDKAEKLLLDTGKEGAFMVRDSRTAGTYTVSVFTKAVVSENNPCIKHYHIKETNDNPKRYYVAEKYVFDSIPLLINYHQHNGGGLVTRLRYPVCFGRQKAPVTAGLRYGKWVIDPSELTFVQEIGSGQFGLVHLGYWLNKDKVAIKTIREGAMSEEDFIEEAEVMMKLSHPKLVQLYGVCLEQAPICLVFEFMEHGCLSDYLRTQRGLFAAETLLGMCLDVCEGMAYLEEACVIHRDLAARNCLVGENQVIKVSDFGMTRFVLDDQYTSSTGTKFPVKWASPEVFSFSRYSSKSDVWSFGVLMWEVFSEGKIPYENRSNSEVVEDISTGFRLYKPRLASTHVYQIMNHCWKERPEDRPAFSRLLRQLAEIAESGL
The following applies: at 10 µM.

Chain of N-lysine methyltransferase SMYD2 (Homo sapiens) (Q9NRG4 whole entry): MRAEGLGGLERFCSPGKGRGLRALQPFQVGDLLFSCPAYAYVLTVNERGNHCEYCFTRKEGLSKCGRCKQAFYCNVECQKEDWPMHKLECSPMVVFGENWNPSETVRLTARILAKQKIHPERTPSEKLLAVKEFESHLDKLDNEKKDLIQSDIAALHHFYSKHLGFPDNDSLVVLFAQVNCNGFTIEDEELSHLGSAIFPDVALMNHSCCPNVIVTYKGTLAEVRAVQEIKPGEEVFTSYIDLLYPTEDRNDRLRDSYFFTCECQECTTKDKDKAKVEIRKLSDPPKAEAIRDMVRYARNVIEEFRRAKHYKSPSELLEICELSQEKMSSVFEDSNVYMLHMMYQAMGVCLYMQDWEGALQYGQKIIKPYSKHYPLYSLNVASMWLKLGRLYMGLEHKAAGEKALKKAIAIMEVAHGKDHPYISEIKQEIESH
Chain of Mitogen-activated protein kinase 10 (P53779 whole entry): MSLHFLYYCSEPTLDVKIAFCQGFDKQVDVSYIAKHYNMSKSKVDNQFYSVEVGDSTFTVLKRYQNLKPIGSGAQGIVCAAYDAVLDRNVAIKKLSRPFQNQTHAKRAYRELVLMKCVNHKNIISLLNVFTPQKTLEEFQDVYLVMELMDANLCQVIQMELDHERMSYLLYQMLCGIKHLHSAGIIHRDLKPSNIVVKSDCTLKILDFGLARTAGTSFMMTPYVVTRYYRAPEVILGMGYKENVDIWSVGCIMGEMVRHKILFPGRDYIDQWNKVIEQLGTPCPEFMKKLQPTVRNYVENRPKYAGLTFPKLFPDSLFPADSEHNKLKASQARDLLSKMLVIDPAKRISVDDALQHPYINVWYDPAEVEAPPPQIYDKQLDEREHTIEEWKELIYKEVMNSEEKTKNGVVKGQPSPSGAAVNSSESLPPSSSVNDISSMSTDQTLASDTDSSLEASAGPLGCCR
Chain of Serine/threonine-protein kinase 32B (Homo sapiens) (Q9NY57 whole entry): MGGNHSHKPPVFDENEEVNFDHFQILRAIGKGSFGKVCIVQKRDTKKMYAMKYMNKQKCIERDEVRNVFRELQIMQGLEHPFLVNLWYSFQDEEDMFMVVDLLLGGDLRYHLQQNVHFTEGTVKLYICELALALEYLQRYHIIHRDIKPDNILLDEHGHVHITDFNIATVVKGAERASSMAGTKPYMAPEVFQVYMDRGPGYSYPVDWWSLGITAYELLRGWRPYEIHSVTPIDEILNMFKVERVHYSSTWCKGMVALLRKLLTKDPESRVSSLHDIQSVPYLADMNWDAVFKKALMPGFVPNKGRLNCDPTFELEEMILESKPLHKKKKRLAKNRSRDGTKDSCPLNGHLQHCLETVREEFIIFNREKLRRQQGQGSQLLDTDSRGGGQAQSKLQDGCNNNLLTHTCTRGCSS
Chain of Tyrosine-protein kinase Lyn (P07948 2-512 limits assumed): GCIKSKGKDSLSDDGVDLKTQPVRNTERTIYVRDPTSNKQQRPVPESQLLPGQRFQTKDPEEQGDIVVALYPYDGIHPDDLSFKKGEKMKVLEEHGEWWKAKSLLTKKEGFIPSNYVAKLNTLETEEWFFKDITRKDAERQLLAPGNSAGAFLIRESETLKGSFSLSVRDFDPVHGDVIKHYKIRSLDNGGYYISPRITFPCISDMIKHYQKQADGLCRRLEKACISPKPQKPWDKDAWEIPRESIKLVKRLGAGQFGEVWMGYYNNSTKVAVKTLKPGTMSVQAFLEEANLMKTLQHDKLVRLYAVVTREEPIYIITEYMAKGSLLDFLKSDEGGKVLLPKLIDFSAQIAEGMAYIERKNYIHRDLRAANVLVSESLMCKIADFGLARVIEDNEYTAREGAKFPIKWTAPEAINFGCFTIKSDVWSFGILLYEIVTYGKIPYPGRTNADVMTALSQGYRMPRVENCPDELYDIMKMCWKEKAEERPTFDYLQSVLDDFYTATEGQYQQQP
Chain of Fibroblast growth factor receptor 2 (Homo sapiens) (P21802 22-821 limits assumed): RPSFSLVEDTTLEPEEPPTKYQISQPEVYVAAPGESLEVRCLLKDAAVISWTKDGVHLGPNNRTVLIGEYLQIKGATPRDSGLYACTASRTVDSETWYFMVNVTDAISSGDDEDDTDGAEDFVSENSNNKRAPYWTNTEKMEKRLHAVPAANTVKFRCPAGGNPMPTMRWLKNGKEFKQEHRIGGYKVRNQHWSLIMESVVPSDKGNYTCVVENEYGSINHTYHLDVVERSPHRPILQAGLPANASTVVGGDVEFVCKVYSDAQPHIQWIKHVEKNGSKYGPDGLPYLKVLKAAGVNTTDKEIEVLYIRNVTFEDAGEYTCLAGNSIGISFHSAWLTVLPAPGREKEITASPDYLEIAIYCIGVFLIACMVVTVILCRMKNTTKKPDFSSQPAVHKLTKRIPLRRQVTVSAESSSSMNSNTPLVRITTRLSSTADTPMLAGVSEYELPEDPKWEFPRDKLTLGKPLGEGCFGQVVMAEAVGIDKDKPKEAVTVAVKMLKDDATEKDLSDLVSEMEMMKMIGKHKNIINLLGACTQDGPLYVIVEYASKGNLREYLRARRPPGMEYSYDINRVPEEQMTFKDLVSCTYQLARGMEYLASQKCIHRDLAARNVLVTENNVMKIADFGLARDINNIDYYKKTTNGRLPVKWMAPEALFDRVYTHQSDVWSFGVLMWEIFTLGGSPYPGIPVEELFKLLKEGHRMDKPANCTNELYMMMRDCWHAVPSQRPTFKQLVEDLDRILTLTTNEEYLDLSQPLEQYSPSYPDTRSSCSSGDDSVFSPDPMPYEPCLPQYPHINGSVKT
Chain of Vascular endothelial growth factor receptor 2 (P35968 whole entry): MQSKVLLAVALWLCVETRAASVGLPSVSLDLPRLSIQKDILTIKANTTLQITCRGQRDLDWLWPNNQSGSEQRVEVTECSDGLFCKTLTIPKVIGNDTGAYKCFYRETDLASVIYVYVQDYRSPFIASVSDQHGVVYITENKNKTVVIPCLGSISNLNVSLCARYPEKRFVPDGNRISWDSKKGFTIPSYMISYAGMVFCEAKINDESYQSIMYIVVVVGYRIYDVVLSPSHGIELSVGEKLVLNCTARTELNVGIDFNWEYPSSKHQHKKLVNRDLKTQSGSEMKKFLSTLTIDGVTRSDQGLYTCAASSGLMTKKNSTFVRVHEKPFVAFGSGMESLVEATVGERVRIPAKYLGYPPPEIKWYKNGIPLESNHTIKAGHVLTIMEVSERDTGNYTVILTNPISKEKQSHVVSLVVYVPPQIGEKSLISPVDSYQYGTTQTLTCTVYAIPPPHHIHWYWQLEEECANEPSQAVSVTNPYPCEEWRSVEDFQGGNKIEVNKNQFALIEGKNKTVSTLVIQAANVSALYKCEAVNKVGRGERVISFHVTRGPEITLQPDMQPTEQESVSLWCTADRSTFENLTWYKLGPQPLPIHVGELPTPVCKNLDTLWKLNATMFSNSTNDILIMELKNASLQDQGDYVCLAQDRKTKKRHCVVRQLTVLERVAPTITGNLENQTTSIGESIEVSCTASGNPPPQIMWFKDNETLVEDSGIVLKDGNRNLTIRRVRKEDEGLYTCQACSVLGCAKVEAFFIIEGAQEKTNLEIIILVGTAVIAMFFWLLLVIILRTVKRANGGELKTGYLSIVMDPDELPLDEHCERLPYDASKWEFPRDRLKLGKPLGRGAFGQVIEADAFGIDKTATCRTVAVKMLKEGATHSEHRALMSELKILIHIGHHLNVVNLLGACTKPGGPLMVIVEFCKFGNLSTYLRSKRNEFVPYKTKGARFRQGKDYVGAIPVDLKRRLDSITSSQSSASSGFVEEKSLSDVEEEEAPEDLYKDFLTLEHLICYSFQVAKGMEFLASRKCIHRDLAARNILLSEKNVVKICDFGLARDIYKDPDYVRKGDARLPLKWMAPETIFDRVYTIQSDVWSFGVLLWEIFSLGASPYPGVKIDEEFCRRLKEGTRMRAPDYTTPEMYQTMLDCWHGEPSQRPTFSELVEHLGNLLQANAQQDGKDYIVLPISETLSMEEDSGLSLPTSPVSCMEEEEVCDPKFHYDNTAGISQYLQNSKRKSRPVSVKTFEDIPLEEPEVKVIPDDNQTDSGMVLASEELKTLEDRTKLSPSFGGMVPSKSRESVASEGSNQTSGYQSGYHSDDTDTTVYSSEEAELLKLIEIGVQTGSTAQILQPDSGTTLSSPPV

As to `CNC(=O)Nc1ccc(-c2nc(N3CC4CCC(C3)O4)c3cnn(C4CCC5(CC4)OCCO5)c3n2)cc1`, the % of inhibition in experiment [1] was found to be 0%. This molecule also had a % of control in [2] of 85%.
Take `Cc1cc([C@@H](C)Nc2ccccc2C(=O)O)c2nc(N3CCOCC3)cc(=O)n2c1` [AZD-6482]: the % of control in experiment [3] amounted to 100%.
The molecule `N#Cc1cccc(-c2c[nH]c3ncnc(N4CCOCC4)c23)c1` displayed a % of control in [4] of 53%.
For `CC[C@@H]1[C@H](F)C(=O)N[C@@H]1COc1nccc2cc(C(N)=O)c(OC)cc12` [ZIMLOVISERTIB], the % of inhibition in [5] was -10.5%.
In the case of `Cc1cc(CN)cc(C)c1-c1ncn(C)c1-c1cncn1C`, the % activity in experiment [6] (at 1 µM) is greater than 90%; in [6] (at 10 µM), greater than 80%.
In the case of `O[C@H]1CC[C@H](Nc2ncc3nc(Nc4c(F)cc(F)cc4F)n([C@H]4CCOC4)c3n2)CC1`, the % of control in experiment [7] and in experiment [8] was 100% in each case.
Consider `Cc1ccc(-c2ccc3c(ccc4sc5c(c43)NC[C@@H](C)NC5=O)n2)cn1`, for which the % of inhibition in [9] was -5%; in [10], -10%.
Consider `COCC(=O)NC/C=C/c1ccc2ncnc(Nc3ccc(Oc4ccc(C)nc4)c(C)c3)c2c1` [CP-724714], for which the % of control in experiment [11] came to 92%.
